“Also recorded” adds a separate entry of the source. Ends that are not written are not given here.
Assays:
Assay type in all cases: in vivo, mouse
C3 = assay: Intestinal IR, C3 deposition immunohistochemistry; design: key to C3 Deposition: + indicates significant difference from Sham treated mice; − indicates not significantly different from C57B1/6 sham treated mice; +/− indicates no significant difference from either C57B1/6 mice subjected to either Sham or IR; details: for C3 Deposition: C57Bl/6 mice subjected to IR, peptide 40 μM i.v. 5 min prior to artery occlusion; for C3 deposition / complement activation after IR: C57Bl/6 mice, peptide infused prior to IR
Procedure: (§1) C57Bl/6 and Rag-1^−/− mice were subjected to ischemia followed by reperfusion similar to previously described studies (Moses, T. et al., J. Leukoc. Biol. 86:971-980 (2009)). Briefly, ketamine (16 mg/kg) and xylazine (80 mg/kg) were used to anesthetize the mice. Buprenorphine (0.06 mg/kg) was then administered for pain. A midline laparotomy was performed to expose the abdominal cavity of the mice, which were then allowed to equilibrate for 30 min. Body temperature was maintained at 37° C. using a water-circulating heat pad. Placing a warm, saline moistened piece of gauze over the abdominal cavity prevented peritoneal desiccation. […] Ischemia was noted by the intestine changing from a pink color to a gray color. After 30 min of ischemia, the clamp was removed and the intestines were allowed to reperfuse for 5, 10, 15, or 120 min. […] Mice treated with the various β2-GPI peptides underwent the same procedure with i.v. administration of the peptides (40 μM) 5 min prior to artery occlusion. Peptides 296, 305, and 296Cys to Ser were dissolved in N. Saline (0.9% NaCl) and injected i.v. in 100-μL volumes. Peptides 100 and 181 were dissolved in DMSO prior to diluting 1/100 in N. Saline. Additional mice received peptides prior to Sham treatment.
(§2) After euthanasia, an additional 2-cm intestinal section from each mouse was immediately snap frozen in O.C.T. freezing medium and 8 μm sections were placed on slides for immunohistochemistry. The C3 deposition and F4/80 expression on the tissue sections were detected by staining with a purified rat-anti-mouse C3 (Hycult Biotechnologies; Plymouth Meeting, Pa.) or F4/80 (eBioscience; San Diego, Calif.) antibody followed by a Texas-red conjugated donkey-anti-rat IgG secondary antibody (Jackson Immunoresearch). CD31 (PECAM-1) and CD106 (VCAM-1) were detected by FITC conjugated rat anti-mouse CD31 or CD106 (Biolegend; San Diego, Calif.) antibodies. Each experiment contained serial sections stained with the appropriate isotype control antibodies. All slides were mounted with ProLong Gold (Invitrogen). Images were obtained at room temperature using a Nikon Eclipse 80i microscope equipped with a CoolSnap CF camera (Photometrics) and analyzed using Metavue software (Molecular Devices). The fluorescence was semi-quantitated using Image J software (NIH) using the fluorescent area fraction after setting threshold for each experiment. The average of the isotype control was subtracted from each photo.

C57Bl/6 mice = assay: Intestinal ischemia/reperfusion, mucosal injury score; design: key to Injury: + indicates significant difference from Sham treated mice; − indicates not significantly different from C57B1/6 sham treated mice; +/− indicates no significant difference from either C57B1/6 mice subjected to either Sham or IR; details: for IR-induced intestinal mucosal damage (injury score): C57Bl/6 mice, peptide 40 μM i.v. 5 min prior to ischemia, 2 hours reperfusion; for IR-induced intestinal injury: Example 2, peptides administered after reperfusion (15-, 30-, or 60-minutes post-reperfusion)
Procedure: as §1
Immediately after euthanasia, a 2-cm mid jejunum tissue section was immediately fixed in 10% buffered formalin, embedded in paraffin, and 8 μm sections were cut transversely and hematoxylin and eosin (H&E) stained. Mucosal injury was graded on a six-tiered scale, as described previously (Fleming, S. D. et al., J. Immunol. 169:2126-2133 (2002)). Briefly, the average damage score of the intestinal section (75-150 villi) was determined after grading each villus. […] Photomicrographs were obtained from H&E stained slides using a 20×, 0.5 Plan Fluor objective on a Nikon 80i microscope and images acquired at room temperature using a Nikon DS-5M camera with DS-L2 software.
Ischemia/reperfusion was performed on ketamine/xylazine anesthetized mice as described in Example 1 above. After 2 hours of reperfusion, the mice were euthanized and sera, liver, spleen, and 2 cm sections of the small intestine, approximately 10 cm distal to the gastroduodenal junction, were collected for histological and other analyses. Mice treated with the various β2-GPI peptides underwent the same procedure with i.v. administration of the peptides. Most studies assumed 2 mL total blood volume in a mouse and administered peptides to a final concentration of 40 μM at 5 min prior to ischemia. Dose response studies administered 1-40 μM peptide at 5 min prior to ischemia and time course studies administered 40 μM peptide at 5 min prior to ischemia, and at 15-, 30- or 60-min post-ischemia (i.e., during reperfusion).
After euthanasia, tissue sections were fixed and stained following the procedures outlined in Example 1. Mucosal injury (SMI) was also graded on a six-tiered scale, as described in Example 1.

IL-6 = assay: Intestinal IR, ex vivo IL-6 generation; design: key to IL-6 Induction: + indicates significant difference from Sham treated mice; − indicates not significantly different from C57B1/6 sham treated mice; +/− indicates no significant difference from either C57B1/6 mice subjected to either Sham or IR; details: for IL-6 Induction: C57Bl/6 mice subjected to IR, peptide 40 μM i.v. 5 min prior to artery occlusion; for IR induced IL-6 production: C57Bl/6 mice, peptide prior to IR
Procedure: as §1
(§3) Ex vivo generation of eicosanoids by mid-jejunal tissue was determined. Immediately after collection, a 2-cm intestinal section from each mouse was minced, washed, resuspended in 37° C. oxygenated Tyrode's buffer (Sigma-Aldrich; St. Louis, Mo.), incubated at 37° C. for 20 minutes, and the supernatant collected. PGE2 and LTB4 concentrations were determined using enzyme immunoassay kits (Cayman Chemical; Ann Arbor, Mich.). IL-6 and IL-12 concentrations were determined using a Milliplex MAP immunoassay kit (Millipore) and read on a Milliplex Analyzer (Millipore). All eicosanoid and cytokine concentrations were standardized to the total tissue protein content.
(§4) Total peroxidase, LTB4, PGE2, IL-6, IL-12p40, and IL-12p70 concentrations were determined using the procedures described in Example 1.

LTB4 = assay: Intestinal IR, ex vivo LTB4 generation; design: key to LTB4 Production: + indicates significant difference from Sham treated mice; − indicates not significantly different from C57B1/6 sham treated mice; +/− indicates no significant difference from either C57B1/6 mice subjected to either Sham or IR; details: for LTB4 Production: C57Bl/6 mice subjected to IR, peptide 40 μM i.v. 5 min prior to artery occlusion; for IR-induced intestinal LTB4 production: C57Bl/6 mice, peptide 40 μM prior to IR
Procedure: as §1, §3, §4

CD106 (VCAM-1) = assay: Intestinal IR, VCAM immunohistochemistry; details: C57Bl/6 mice, peptide prior to IR, data not shown
Procedure: as §1, with “Peptides 100 and 181 were dissolved in DMSO prior to diluting 1/100 in N. Saline. Additional mice received peptides prior to Sham treatment.” left out
as §2, with “Each experiment contained serial sections stained with the appropriate isotype control antibodies. All slides were mounted with ProLong Gold (Invitrogen).” left out, “The average of the isotype control was subtracted from each photo.” left out

F4/80 = assay: Intestinal IR, F4/80 macrophage marker immunohistochemistry; design: key to F4/80 Deposition: + indicates significant difference from Sham treated mice; − indicates not significantly different from C57B1/6 sham treated mice; +/− indicates no significant difference from either C57B1/6 mice subjected to either Sham or IR; details: for F4/80 Deposition: C57Bl/6 mice subjected to IR, peptide 40 μM i.v. 5 min prior to artery occlusion; for expression of the mature macrophage marker (F4/80) after IR: C57Bl/6 mice, peptide prior to IR
Procedure: as §1, §2

IL-12 = assay: Intestinal IR, ex vivo IL-12 generation; design: key to IL-12p40 Induction: + indicates significant difference from Sham treated mice; − indicates not significantly different from C57B1/6 sham treated mice; +/− indicates no significant difference from either C57B1/6 mice subjected to either Sham or IR; details: for IL-12p40 Induction: C57Bl/6 mice subjected to IR, peptide 40 μM i.v. 5 min prior to artery occlusion; for IR induced IL-12 production: C57Bl/6 mice, peptide prior to IR
Procedure: as §1, §3, §4

[1] = C57Bl/6 mice subjected to IR, peptide 40 μM i.v. 5 min prior to artery occlusion
[2] = 10 μM peptide 5 min prior to IR
[3] = administered at 60 min post-reperfusion
[4] = administered at either 5- or 15-min post-reperfusion, 2-hour assay
[5] = treatment at both 30 min and 60 min post-reperfusion

H-IHFYCKNKEKKCSYTVEAHCRDGTI-OH (cysteine pairing not given here) [peptide 296]
C3 Deposition (C3): −
C3 deposition / complement activation after IR (C3): significantly decreased C3 deposition; also recorded: attenuated complement activation
Injury (C57Bl/6 mice; [1]): −
IR-induced intestinal mucosal damage (injury score) (C57Bl/6 mice): attenuated mucosal damage
IL-6 Induction (IL-6): −
IR induced IL-6 production (IL-6): attenuated; also recorded: inhibit
LTB4 Production (LTB4): −
IR-induced intestinal LTB4 production (LTB4): attenuated; also recorded: blocked
expression of adhesion molecule VCAM after IR (CD106 (VCAM-1)): inhibited
F4/80 Deposition (F4/80): −
expression of the mature macrophage marker (F4/80) after IR (F4/80): reduced macrophage to Sham levels
IL-12p40 Induction (IL-12): −
IR induced IL-12 production (IL-12): attenuated; also recorded: inhibit

H-IHFYSKNKEKKSSYTVEAHSRDGTI-OH [peptide 296Cys-Ser]
C3 Deposition (C3): −
C3 deposition / complement activation after IR (C3): significantly decreased C3 deposition; also recorded: attenuated complement activation
intestinal damage (C57Bl/6 mice; 4 μM peptide 5 min prior to IR): attenuated
Injury (C57Bl/6 mice; [2]): optimally attenuated
Injury (C57Bl/6 mice; [1]): −
IR-induced intestinal mucosal damage (injury score) (C57Bl/6 mice): attenuated mucosal damage; also recorded: confirmed to attenuate injury
IR-induced intestinal mucosal damage (injury score) (C57Bl/6 mice; listed as 296c-s): attenuate actual epithelial injury more effectively
IR-induced intestinal injury (C57Bl/6 mice): effective for attenuating
intestinal injury (C57Bl/6 mice; [3]): attenuated
intestinal injury (C57Bl/6 mice; [4]): effective in preventing intestinal injury
intestinal injury (C57Bl/6 mice; [5]): significantly decreased
IL-6 Induction (IL-6): −
IR induced IL-6 production (IL-6): attenuated; also recorded: inhibit
LTB4 Production (LTB4): −
IR-induced intestinal LTB4 production (LTB4): attenuated; also recorded: blocked
expression of adhesion molecule VCAM after IR (CD106 (VCAM-1)): inhibited
F4/80 Deposition (F4/80): −
expression of the mature macrophage marker (F4/80) after IR (F4/80): reduced macrophage to Sham levels
IL-12p40 Induction (IL-12): −
IR induced IL-12 production (IL-12): attenuated; also recorded: inhibit

H-IPSCFKEHSSLAFWKTDASELTPC-NH2 (cysteine pairing not given here) [peptide 322, 18]
C3 Deposition (C3): +
C3 deposition / complement activation after IR (C3): did not significantly inhibit C3 deposition
Injury (C57Bl/6 mice; [1]): +
IR-induced intestinal mucosal damage (injury score) (C57Bl/6 mice): IR-induced intestinal damage similar to untreated mice
IL-6 Induction (IL-6): +
IR induced IL-6 production (IL-6): did not inhibit
LTB4 Production (LTB4): +
IR-induced intestinal LTB4 production (LTB4): sustained inflammation similar to untreated mice
F4/80 Deposition (F4/80): +
expression of the mature macrophage marker (F4/80) after IR (F4/80): increased in response to IR
IL-12p40 Induction (IL-12): +
IR induced IL-12 production (IL-12): did not inhibit

H-KKCSYTVEAHCRDGTIEIPSCFKEHS-OH (cysteine pairing not given here) [peptide 305, 10]
C3 Deposition (C3): −
C3 deposition / complement activation after IR (C3): not significantly different from either Sham or IR treatment; also recorded: attenuated complement activation
Injury (C57Bl/6 mice; [2]): optimally attenuated
Injury (C57Bl/6 mice; [1]): −
IR-induced intestinal mucosal damage (injury score) (C57Bl/6 mice): attenuated mucosal damage
IR-induced intestinal injury (C57Bl/6 mice): effective for attenuating
intestinal injury (C57Bl/6 mice; [3]): attenuated
intestinal injury (C57Bl/6 mice; [4]): effective in preventing intestinal injury
intestinal injury (C57Bl/6 mice; [5]): significantly decreased
IL-6 Induction (IL-6): −
IR induced IL-6 production (IL-6): attenuated; also recorded: inhibited
LTB4 Production (LTB4): +
IR-induced intestinal LTB4 production (LTB4): did not attenuate
expression of adhesion molecule VCAM after IR (CD106 (VCAM-1)): inhibited
F4/80 Deposition (F4/80): −
expression of the mature macrophage marker (F4/80) after IR (F4/80): reduced macrophage to Sham levels
IL-12p40 Induction (IL-12): −
IR induced IL-12 production (IL-12): attenuated; also recorded: inhibited

H-KNISFACNPGFFLNG-NH2 [peptide 100, 16, reference compound]
C3 Deposition (C3): +
C3 deposition / complement activation after IR (C3): did not significantly inhibit C3 deposition
Injury (C57Bl/6 mice; [1]): +
IR-induced intestinal mucosal damage (injury score) (C57Bl/6 mice): IR-induced intestinal damage similar to untreated mice
IL-6 Induction (IL-6): +/−
IR induced IL-6 production (IL-6): attenuated IL-6 production
LTB4 Production (LTB4): +
IR-induced intestinal LTB4 production (LTB4): sustained inflammation similar to untreated mice
F4/80 Deposition (F4/80): +
expression of the mature macrophage marker (F4/80) after IR (F4/80): reduced macrophage to Sham levels
IL-12p40 Induction (IL-12): +/−

From patent US8895502B2, “β2-glycoprotein I peptide inhibitors” (Kansas State University Research Foundation, priority 2010, dated 2014)
